# Biological target: T1, CDK2 (Homo sapiens, UniProt P24941)
# T1 construct: endogenous in cells; host or cells: OVCAR3 cells
# Assay: Phospho-RB measurement in OVCAR3 cells (HTRF phospho-RB cellular kit)
# Assay type: cell-based
# Settings: inhibition of RB phosphorylation at S807/811 (HTRF, TR-FRET ratio 665/620), 24 h compound treatment, 0.3 to 10,000 nM
# Protocol: Biological Example 1: Phospho-RB Measurement in OVCAR3 Cells
# The ability of compounds of Formula (I) to inhibit CDK2 was determined in OVCAR3 cells by measuring inhibition of phosphorylation of RB protein at S780 and S807/811. Phosphorylation of RB protein at S807/811 were measured using HTRF phospho-RB cellular kits (Cat #64RBS807PEG) from Cisbio.
# On Day 1, OVCAR3 cells were seeded into 96-well tissue-culture treated plates at 20,000 cells/well in 200 μL and incubated overnight at 37° C. in CO2 atmosphere. On Day 2, the cells were treated with test compounds at concentrations from 0.3 to 10,000 nM using HP D300 digital dispenser. Twenty-four hours after compound treatment, cell culture media was removed by flicking the plate and tapping the plate against clean paper towel. Immediately 30 μL 1× lysis buffer was supplemented from the kit and the plate was incubated at room temperature on shaker for 30 min. After homogenization by pipetting up and down, 8 μL cell lysate from 96-well cell culture plate was transferred to 384-well small volume white detection plate. 2 μL premixed detection solution was added and the plate was covered with sealer. To prepare the detection solution, d2 conjugated-phospho-RB antibody and Eu-cryptate conjugated phosphor-RB antibody were diluted into detection buffer following manufacturer's instruction.
# Detection plates were incubated for 4 h at room temperature and read on ClarioStar (BMG Labtech) in TR-FRET mode ([…]). The TR-FRET ratio (665 nM/620 nM) was plotted against the compound concentration and normalized to DMSO controls. Half maximal inhibition concentration (IC50) values are calculated with a four-parameter logistic fit using GraphPad Prism (version 8; La Jolla, CA).
row,Compound,IC50 [µM]
1,"COc1cccc2c1CN(S(=O)(=O)Nc1cccc(-c3nc(C4(C)CCOCC4)sc3-c3ccnc(NC4CC5(C4)CS(=O)(=O)C5)n3)c1F)C2 [Example 2, N-(3-(5-(2-((2,2-dioxido-2-thiaspiro-[3.3]-heptan-6-yl)amino)pyrimidin-4-yl)-2-(4-methyltetrahydro-2H-pyran-4-yl)-thiazol-4-yl)-2-fluorophenyl)-4-methoxyisoindoline-2-sulfonamide]",0.0755
2,"CC1(c2nc(-c3cccc(NS(=O)(=O)N4Cc5cccc(C(F)(F)F)c5C4)c3F)c(-c3ccnc(NC4CC5(C4)CS(=O)(=O)C5)n3)s2)CCOCC1 [Example 3, N-(3-(5-(2-((2,2-dioxido-2-thiaspiro-[3.3]-heptan-6-yl)amino)pyrimidin-4-yl)-2-(4-methyltetrahydro-2H-pyran-4-yl)thiazol-4-yl)-2-fluorophenyl)-4-(trifluoromethyl) isoindoline-2-sulfonamide]",0.0486
3,"O=S1(=O)CC2(CC(Nc3nccc(-c4sc(N5C6CCC5COC6)nc4-c4cccc(NS(=O)(=O)N5Cc6ccccc6C5)c4F)n3)C2)C1 [Example 4, N-(3-(2-(3-oxa-8-azabicyclo[3.2.1]octan-8-yl)-5-(2-((2,2-dioxido-2-thiaspiro-[3.3]heptan-6-yl)amino)pyrimidin-4-yl)thiazol-4-yl)-2-fluorophenyl)-isoindoline-2-sulfonamide]",0.139
4,"N#Cc1ccc2c(c1)N(S(=O)(=O)Nc1cccc(-c3nc(N4C5CCC4COC5)sc3-c3ccnc(NC4CC5(C4)CS(=O)(=O)C5)n3)c1F)CC2 [Example 6, N-(3-(2-(3-oxa-8-azabicyclo[3.2.1]octan-8-yl)-5-(2-((2,2-dioxido-2-thiaspiro-[3.3]heptan-6-yl)amino)pyrimidin-4-yl)thiazol-4-yl)-2-fluorophenyl)-6-cyanoindoline-1-sulfonamide]",0.109
5,"N#Cc1ccc2c(c1)N(S(=O)(=O)Nc1cccc(-c3nc(C45CC(C4)C5)sc3-c3ccnc(NC4CC5(C4)CS(=O)(=O)C5)n3)c1F)CC2 [Example 9, N-(3-(2-(bicyclo [1.1.1]pentan-1-yl)-5-(2-((2,2-dioxido-2-thiaspiro[3.3]heptan-6-yl)amino)-pyrimidin-4-yl)thiazol-4-yl)-2-fluorophenyl)-6-cyanoindoline-1-sulfonamide]",0.104
6,CC1(c2nc(-c3cccc(NS(=O)(=O)N4CCc5ccc(C#N)cc54)c3F)c(-c3ccnc(N[C@H]4[C@@H]5CS(=O)(=O)C[C@@H]54)n3)s2)CCOCC1 [Example 10],0.073
7,"O=S1(=O)C[C@@H]2[C@H](C1)[C@H]2Nc1nccc(-c2sc(C34CC(C3)C4)nc2-c2cccc(NS(=O)(=O)N3Cc4ccc(CO)cc4C3)c2F)n1 [Example 11, N-(3-(2-(bicyclo [1.1.1]pentan-1-yl)-5-(2-(((1R,5S,6r)-3,3-dioxido-3-thiabicyclo-[3.1.0]hexan-6-yl)amino)pyrimidin-4-yl)thiazol-4-yl)-2-fluorophenyl)-5-(hydroxymethyl) isoindoline-2-sulfonamide]",0.081
8,"O=S1(=O)C[C@@H]2[C@H](C1)[C@H]2Nc1nccc(-c2sc(C34CC(C3)C4)nc2-c2cccc(NS(=O)(=O)N3CCc4c(CO)cccc43)c2F)n1 [Example 13, N-(3-(2-(bicyclo [1.1.1]pentan-1-yl)-5-(2-(((1R,5S,6r)-3,3-dioxido-3-thia-bicyclo[3.1.0]-hexan-6-yl)amino)-pyrimidin-4-yl)thiazol-4-yl)-2-fluorophenyl)-4-(hydroxymethyl)-indoline-1-sulfonamide]",0.0577
9,"N#Cc1ccc2c(c1)N(S(=O)(=O)Nc1cccc(-c3nc(C45CC(C4)C5)sc3-c3ccnc(N[C@H]4[C@@H]5CS(=O)(=O)C[C@@H]54)n3)c1F)CC2 [Example 14, N-(3-(2-(bicyclo [1.1.1]pentan-1-yl)-5-(2-(((1R,5S,6r)-3,3-dioxido-3-thiabicyclo-[3.1.0]-hexan-6-yl)amino)pyrimidin-4-yl)thiazol-4-yl)-2-fluorophenyl)-6-cyanoindoline-1-sulfonamide]",0.124
10,"CN1CC2CCC(C1)N2c1nc(-c2cccc(NS(=O)(=O)N3Cc4ccccc4C3)c2F)c(-c2ccnc(NC3CC4(C3)CS(=O)(=O)C4)n2)s1 [Example 15, N-(3-(5-(2-((2,2-dioxido-2-thiaspiro-[3.3]-heptan-6-yl)amino)pyrimidin-4-yl)-2-(3-methyl-3,8-diazabicyclo[3.2.1]-octan-8-yl)thiazol-4-yl)-2-fluorophenyl)-isoindoline-2-sulfonamide]",0.0725
11,"CN1CC2CCC(C1)N2c1nc(-c2cccc(NS(=O)(=O)N3CCc4ccc(C#N)cc43)c2F)c(-c2ccnc(NC3CC4(C3)CS(=O)(=O)C4)n2)s1 [Example 16, 6-cyano-N-(3-(5-(2-((2,2-dioxido-2-thiaspiro[3.3]heptan-6-yl)amino)-pyrimidin-4-yl)-2-(3-methyl-3,8-diazabicyclo[3.2.1]octan-8-yl)thiazol-4-yl)-2-fluorophenyl) indoline-1-sulfonamide]",0.0624
12,"O=S1(=O)CC2(CC(Nc3nccc(-c4sc(C56CC(C5)C6)nc4-c4cccc(NS(=O)(=O)N5CCc6ccc(C(F)(F)F)cc65)c4F)n3)C2)C1 [Example 19, N-(3-(2-(bicyclo [1.1.1]pentan-1-yl)-5-(2-((2,2-dioxido-2-thiaspiro[3.3]heptan-6-yl)amino)-pyrimidin-4-yl)thiazol-4-yl)-2-fluorophenyl)-6-(trifluoromethyl)-indoline-1-sulfonamide]",0.12
13,"COc1ccc2c(c1)N(S(=O)(=O)Nc1cccc(-c3nc(C45CC(C4)C5)sc3-c3ccnc(NC4CC5(C4)CS(=O)(=O)C5)n3)c1F)CC2 [Example 20, N-(3-(2-(bicyclo [1.1.1]pentan-1-yl)-5-(2-((2,2-dioxido-2-thiaspiro[3.3]heptan-6-yl)amino)-pyrimidin-4-yl)thiazol-4-yl)-2-fluorophenyl)-6-methoxyindoline-1-sulfonamide]",0.208

# The remaining lines, values ahead:
row,IC50 [µM],Compound
1,0.0327,"CC1(c2nc(-c3cccc(NS(=O)(=O)N4CCc5ccc(C#N)cc54)c3F)c(-c3ccnc(NC4CC5(C4)CS(=O)(=O)C5)n3)s2)CCOCC1 [Example 5, 6-cyano-N-(3-(5-(2-((2,2-dioxido-2-thiaspiro-[3.3]heptan-6-yl)amino)-pyrimidin-4-yl)-2-(4-methyltetrahydro-2H-pyran-4-yl)thiazol-4-yl)-2-fluorophenyl) indoline-1-sulfonamide]"
2,0.0092,"COc1cccc2c1CN(S(=O)(=O)Nc1cccc(-c3nc(C4(C)CCOCC4)sc3-c3ccnc(N[C@H]4[C@@H]5CS(=O)(=O)C[C@@H]54)n3)c1F)C2 [Example 7, N-(3-(5-(2-(((1R, 5S,6r)-3,3-dioxido-3-thiabicyclo[3.1.0]hexan-6-yl)amino)-pyrimidin-4-yl)-2-(4-methyltetrahydro-2H-pyran-4-yl)thiazol-4-yl)-2-fluorophenyl)-4-methoxyisoindoline-2-sulfonamide]"
3,0.0152,"CC1(c2nc(-c3cccc(NS(=O)(=O)N4Cc5cccc(C(F)(F)F)c5C4)c3F)c(-c3ccnc(N[C@H]4[C@@H]5CS(=O)(=O)C[C@@H]54)n3)s2)CCOCC1 [Example 8, N-(3-(5-(2-(((1R,5S, 6r)-3,3-dioxido-3-thiabicyclo[3.1.0]hexan-6-yl)amino)-pyrimidin-4-yl)-2-(4-methyltetrahydro-2H-pyran-4-yl)thiazol-4-yl)-2-fluorophenyl)-4-(trifluoromethyl)-isoindoline-2-sulfonamide]"
4,0.0478,"CC1(c2nc(-c3cccc(NS(=O)(=O)N4Cc5ccc(CO)cc5C4)c3F)c(-c3ccnc(N[C@H]4[C@@H]5CS(=O)(=O)C[C@@H]54)n3)s2)CCOCC1 [Example 12, N-(3-(5-(2-(((1R, 5S,6r)-3,3-dioxido-3-thiabicyclo[3.1.0]hexan-6-yl)amino)-pyrimidin-4-yl)-2-(4-methyltetrahydro-2H-pyran-4-yl)thiazol-4-yl)-2-fluorophenyl)-5-(hydroxymethyl)-isoindoline-2-sulfonamide]"
5,0.015,"CN1CC2CCC(C1)N2c1nc(-c2cccc(NS(=O)(=O)N3CCc4ccccc43)c2F)c(-c2ccnc(NC3CC4(C3)CS(=O)(=O)C4)n2)s1 [Example 17, N-(3-(5-(2-((2,2-dioxido-2-thiaspiro-[3.3]-heptan-6-yl)amino)pyrimidin-4-yl)-2-(3-methyl-3,8-diazabicyclo[3.2.1]-octan-8-yl)thiazol-4-yl)-2-fluorophenyl)-indoline-1-sulfonamide]"
6,0.0248,"CN1CC2CCC(C1)N2c1nc(-c2cccc(NS(=O)(=O)N3Cc4cccc(C(F)F)c4C3)c2F)c(-c2ccnc(NC3CC4(C3)CS(=O)(=O)C4)n2)s1 [Example 18, 4-(difluoromethyl)-N-(3-(5-(2-((2,2-dioxido-2-thiaspiro [3.3]heptan-6-yl)amino)pyrimidin-4-yl)-2-(3-methyl-3,8-diazabicyclo [3.2.1]octan-8-yl)thiazol-4-yl)-2-fluorophenyl)-isoindoline-2-sulfonamide]"

# Source: patent US20260274833A1 (NiKang Therapeutics, Inc., priority 2022, published 2026)
